Laboratory results as given in article PMC8515607 (ACS Omega, 2021).
Several values for one entry are separate records, joined by “and”; a condition that tells them apart may be missing. Equal entries are not always repeated. Where two headings read alike, the source gives them in different places.

Experiments:
[1] = tested on: A549, MCF-7, and LoVo cells; assay: Antiproliferative activity, values quoted jointly for three tumor lines; format: cell-based, human; conditions: Homo sapiens; summary of Table 1; read-out: IC50 against A549, MCF-7, and LoVo cells (span over the three lines)
Excerpt: (§1) The A549 and MCF7 cell lines were purchased from the European Collection of Authenticated Cell Cultures (ECACC, Salisbury, U.K., 86012804 and 86012803). The LoVo cell line was purchased from the American Type Culture Collection (CCL-229, ATCC, Manassas, VA), and LoVo/DX by courtesy of Prof. E. Borowski (Technical University of Gdańsk, Gdańsk, Poland). The BALB/3T3 cell line was purchased from the American Type Culture Collection (CCL-163, ATCC, Manassas, VA). All of the cell lines are maintained in the Institute of Immunology and Experimental Therapy (IIET), Wroclaw, Poland.
(§2) A549 cells were cultured in a mixture of OptiMEM and Roswell Park Memorial Institute (RPMI) 1640 (1:1) medium (IIET, Wroclaw, Poland), supplemented with 10% fetal bovine serum HyClone (GE Healthcare) and 2 mM L-glutamine (Sigma-Aldrich, Germany). MCF7 cells were cultured in a mixture of Eagle’s medium (IIET, Wroclaw, Poland), supplemented with 10% fetal bovine serum, 2 mM L-glutamine, and insulin (Sigma-Aldrich, Germany). LoVo and LoVo/DX cells were cultured in F12K medium (Corning), supplemented with 10% fetal bovine serum HyClone (GE Healthcare) and 0.1 μg/mL doxorubicin (Accord) for LoVo/DX. BALB/3T3 fibroblasts were cultured in Dulbecco’s medium (Gibco), supplemented with 10% fetal bovine serum (GE Healthcare) and 2 mM L-glutamine (Sigma-Aldrich, Germany). All culture media contained antibiotics: 100 U/mL penicillin (Polfa-Tarchomin, Poland) and 0.1 mg/mL streptomycin (Sigma-Aldrich, Germany). All cell lines were cultured during entire experiment in humid atmosphere at 37 °C and 5% CO2.
(§3) All cell lines were exposed to each tested agent at different concentrations in the range 100–0.00001 μg/mL for 72 h. The cells were also exposed to the reference drug cisplatin (Teva Pharmaceuticals, Poland) and doxorubicin (Accord Healthcare Limited, U.K.). Additionally, all cell lines were exposed to dimethyl sulfoxide (DMSO) (solvent used for tested compounds) (POCh, Poland) at concentrations corresponding to those present in tested agents dilutions. After 72 h, sulforhodamine B (SRB) assay was performed.[57]
(§4) After 72 h of incubation with the tested compounds, the cells were fixed in situ by gently adding cold 50% trichloroacetic acid (TCA) (POCh, Poland) and were incubated at room temperature for 1 h. Then, the wells were washed four times with water and air-dried. Next, 0.1% solution of sulforhodamine B (Sigma-Aldrich, Germany) in 1% acetic acid (POCh, Poland) was added to each well and the plates were incubated at room temperature for 0.5 h. After incubation time, unbound dye was removed by washing plates four times with 1% acetic acid, whereas stain bound to cells was solubilized with 10 mM Tris base (Sigma-Aldrich, Germany). Absorbance of each solution was read at Synergy H4 Hybrid Multi-Mode Microplate Reader (BioTek Instruments) at the 540 nm wavelength.
(§5) IC50 values were calculated in Excel sheet using formulas adapted by Mateusz Psurski fromCheburator 0.4, Dmitry Nevozhay software (version 1.2.0 software by Dmitry Nevozhay, 2004–2014, http://www.cheburator.nevozhay.com, freely available) for each experiment.[58] Compounds at each concentration were tested in triplicate in a single experiment, and each experiment was repeated at least three times independently.

[2] = tested on: A549; assay: cells; format: cell-based, human; conditions: for A549 SI: selectivity index = IC50 BALB/3T3 / IC50 A549
Excerpt: as §1, §2, §3, §4, §5

[3] = tested on: MCF-7; assay: cells; format: cell-based, human; conditions: for MCF-7 SI: selectivity index = IC50 BALB/3T3 / IC50 MCF-7
Excerpt: as §1, §2, §3, §4, §5

[4] = tested on: LoVo/DX; assay: cells; format: cell-based, human; conditions: for LoVo/DX RI: resistance index = IC50 LoVo/DX / IC50 LoVo; for LoVo/DX SI: selectivity index = IC50 BALB/3T3 / IC50 LoVo/DX
Excerpt: as §1, §2, §3, §4, §5

[5] = tested on: LoVo; assay: cells; format: cell-based, human; conditions: for LoVo SI: selectivity index = IC50 BALB/3T3 / IC50 LoVo
Excerpt: as §1, §2, §3, §4, §5

[6] = tested on: BALB/3T3; assay: In vitro antiproliferative activity, SRB assay, normal fibroblasts BALB/3T3; format: cell-based; conditions: 72 h, mean ± SD
Excerpt: as §1, §2, §3, §4, §5

[7] = Homo sapiens, A549, 72 h, read-out: A549 IC50 (nM), 72 h exposure, SRB, mean ± SD
[8] = Homo sapiens, MCF7, 72 h, read-out: MCF-7 IC50 (nM)
[9] = Homo sapiens, LoVo/DX, 72 h, read-out: LoVo/DX IC50 (nM), 72 h exposure, SRB, mean ± SD
[10] = Homo sapiens, LoVo, 72 h, read-out: LoVo IC50 (nM)
[11] = Mus musculus, BALB/3T3, normal murine embryonic fibroblasts

CNc1ccc2c(cc1=O)[C@@H](n1ccnn1)CCc1cc(OC)c(OC)c(OC)c1-2 [Compound 5]
IC50 [1]: 3.1 to 6.4 nM | IC50 [2, 7]: 6.1 ± 1.1 nM | A549 SI [2]: 1.8 | IC50 [3, 8]: 5.6 ± 1 nM | MCF-7 SI [3]: 2.0 | IC50 [4, 9]: 55 ± 20 nM | LoVo/DX RI [4]: 9.8 | LoVo/DX SI [4]: 0.2 | IC50 [5, 10]: 5.6 ± 0.6 nM | LoVo SI [5]: 2.0 | IC50 [6, 11]: 11 ± 2.2 nM

CCOC(=O)c1nnn([C@H]2CCc3cc(OC)c(OC)c(OC)c3-c3ccc(NC)c(=O)cc32)c1C(=O)OCC [Compound 22]
IC50 [1]: 70 to 100 nM | IC50 [2, 7]: 72 ± 27 nM | A549 SI [2]: 1.5 | IC50 [3, 8]: 93 ± 43 nM | MCF-7 SI [3]: 1.2 | IC50 [4, 9]: 580 ± 120 nM | LoVo/DX RI [4]: 6.0 | LoVo/DX SI [4]: 0.2 | IC50 [5, 10]: 97 ± 24 nM | LoVo SI [5]: 1.1

CCCCCCCCCCCCCCCC(=O)NCc1cn([C@H]2CCc3cc(OC)c(OC)c(OC)c3-c3ccc(NC)c(=O)cc32)nn1 [Compound 30]
IC50 [2, 7]: 16 ± 7.3 nM | A549 SI [2]: 18.1 | IC50 [3, 8]: 9.3 ± 2.4 nM | MCF-7 SI [3]: 31.2 | IC50 [4, 9]: 7300 ± 1100 nM | LoVo/DX RI [4]: 24 | LoVo/DX SI [4]: <0.1 | IC50 [5, 10]: 300 ± 94 nM | LoVo SI [5]: 1.0 | IC50 [6, 11]: 290 ± 49 nM

CNc1ccc2c(cc1=O)[C@@H](n1cc(CNC(=O)CCC(F)(F)F)nn1)CCc1cc(OC)c(OC)c(OC)c1-2 [Compound 33]
IC50 [2, 7]: 11 ± 0.1 nM | A549 SI [2]: 2.5 | IC50 [3, 8]: 9.7 ± 3.4 nM | MCF-7 SI [3]: 2.8 | IC50 [4, 9]: 3000 ± 800 nM | LoVo/DX RI [4]: 270 | LoVo/DX SI [4]: <0.1 | IC50 [5, 10]: 11 ± 5.5 nM | LoVo SI [5]: 2.5 | IC50 [6, 11]: 27 ± 8.7 nM

CNc1ccc2c(cc1=O)[C@@H](n1cc(CNC(=O)CCNC(=O)OC(C)(C)C)nn1)CCc1cc(OC)c(OC)c(OC)c1-2 [Compound 34]
IC50 [2, 7]: 26 ± 11 nM | A549 SI [2]: 10.4 | IC50 [3, 8]: 10 ± 2.1 nM | MCF-7 SI [3]: 27.0 | IC50 [4, 9]: 17000 ± 1600 nM | LoVo/DX RI [4]: 510 | LoVo/DX SI [4]: <0.1 | IC50 [5, 10]: 33 ± 10 nM | LoVo SI [5]: 8.2 | IC50 [6, 11]: 270 ± 67 nM

CNc1ccc2c(cc1=O)[C@@H](n1cc(CNC(=O)c3ccncc3)nn1)CCc1cc(OC)c(OC)c(OC)c1-2 [Compound 36]
IC50 [2, 7]: 22 ± 7.4 nM | A549 SI [2]: 3.4 | IC50 [3, 8]: 12 ± 1.4 nM | MCF-7 SI [3]: 6.3 and 6.2 | IC50 [4, 9]: 9100 ± 790 nM | LoVo/DX RI [4]: 700 | LoVo/DX SI [4]: <0.1 | IC50 [5, 10]: 13 ± 3.4 nM | LoVo SI [5]: 5.7 | IC50 [6, 11]: 74 ± 22 nM

CNc1ccc2c(cc1=O)[C@@H](n1cc(CNC(=O)OC)nn1)CCc1cc(OC)c(OC)c(OC)c1-2 [Compound 37]
IC50 [2, 7]: 7.2 ± 0.7 nM | A549 SI [2]: 1.9 | IC50 [3, 8]: 4.7 ± 0.5 nM | MCF-7 SI [3]: 3.0 | IC50 [4, 9]: 1500 ± 240 nM | LoVo/DX RI [4]: 180 | LoVo/DX SI [4]: <0.1 | IC50 [5, 10]: 8.5 ± 2.3 nM | LoVo SI [5]: 1.6 | IC50 [6, 11]: 14 ± 2.4 nM

CCOC(=O)NCc1cn([C@H]2CCc3cc(OC)c(OC)c(OC)c3-c3ccc(NC)c(=O)cc32)nn1 [Compound 38]
IC50 [2, 7]: 4.8 ± 0.7 nM | A549 SI [2]: 2.5 | IC50 [3, 8]: 4.2 ± 0.7 nM | MCF-7 SI [3]: 2.9 | IC50 [4, 9]: 840 ± 95 nM | LoVo/DX RI [4]: 110 | LoVo/DX SI [4]: <0.1 | IC50 [5, 10]: 7.7 ± 2.9 nM | LoVo SI [5]: 1.6 | IC50 [6, 11]: 12 ± 1.6 nM

CNc1ccc2c(cc1=O)[C@@H](n1cc(CNC(=O)OC(C)(C)C)nn1)CCc1cc(OC)c(OC)c(OC)c1-2 [Compound 41]
IC50 [2, 7]: 5.4 ± 1.5 nM | A549 SI [2]: 2.0 | IC50 [3, 8]: 3.2 ± 0.6 nM | MCF-7 SI [3]: 3.4 | IC50 [4, 9]: 570 ± 120 nM | LoVo/DX RI [4]: 110 | LoVo/DX SI [4]: <0.1 | IC50 [5, 10]: 5.1 ± 0.3 nM | LoVo SI [5]: 2.2 | IC50 [6, 11]: 11 ± 0.8 nM

CNc1ccc2c(cc1=O)[C@@H](n1cc(CNC(=O)OCC(Cl)(Cl)Cl)nn1)CCc1cc(OC)c(OC)c(OC)c1-2 [Compound 42]
IC50 [2, 7]: 1.2 to 1.9 nM | IC50 ([2]; read-out: A549 IC50, 72 h exposure, SRB, mean ± SD): 1.9 ± 2.9 nM | A549 SI [2]: 1.4 | IC50 [3, 8]: 2.5 ± 1.8 nM | MCF-7 SI [3]: 1.1 | IC50 [4, 9]: 470 ± 300 nM | LoVo/DX RI [4]: 120 | LoVo/DX SI [4]: <0.1 | IC50 [5, 10]: 3.8 ± 4.2 nM | LoVo SI [5]: 0.7 | IC50 [6, 11]: 2.7 ± 2.4 nM

N.N.[Cl][Pt][Cl] [cisplatin, reference compound]
IC50 ([2]; 72 h exposure, SRB, mean ± SD, read-out: A549 IC50): 3500 ± 630 nM | A549 SI [2]: 0.9 | IC50 ([3]; 72 h exposure, SRB, mean ± SD, read-out: MCF-7 IC50): 4400 ± 1200 nM | MCF-7 SI [3]: 0.8 | IC50 ([4]; 72 h exposure, SRB, mean ± SD, read-out: LoVo/DX IC50): 3000 ± 800 nM | LoVo/DX RI [4]: 0.7 | LoVo/DX SI [4]: 1.1 | IC50 ([5]; 72 h exposure, SRB, mean ± SD, read-out: LoVo IC50): 4100 ± 860 nM | LoVo SI [5]: 0.8 | IC50 ([6]; normal murine embryonic fibroblasts): 3300 ± 970 nM

COc1cccc2c1C(=O)c1c(O)c3c(c(O)c1C2=O)C[C@@](O)(C(=O)CO)C[C@@H]3O[C@H]1C[C@H](N)[C@H](O)[C@H](C)O1 [doxorubicin, reference compound]
IC50 ([2]; Homo sapiens, A549, 72 h exposure, SRB, mean ± SD, read-out: A549 IC50): 120 ± 100 nM | A549 SI [2]: 0.1 | IC50 ([3]; Homo sapiens, MCF7, 72 h exposure, SRB, mean ± SD, read-out: MCF-7 IC50): 82 ± 31 nM | MCF-7 SI [3]: 0.1 | IC50 ([4]; Homo sapiens, LoVo/DX, 72 h exposure, SRB, mean ± SD, read-out: LoVo/DX IC50): 5800 ± 2200 nM | LoVo/DX RI [4]: 110 | LoVo/DX SI [4]: <0.1 | IC50 ([5]; Homo sapiens, LoVo, 72 h exposure, SRB, mean ± SD, read-out: LoVo IC50): 52 ± 13 nM | LoVo SI [5]: 0.2 | IC50 [6, 11]: 12 ± 2.3 nM
